Measurements: US11180462B2, “Microbiocidal oxadiazole derivatives” (SYNGENTA PARTICIPATIONS AG, priority 2015, dated 2021)

Assays:
[1] = system: Glomerella lagenarium (Colletotrichum lagenarium); assay: Fungicidal activity against Glomerella lagenarium (Colletotrichum lagenarium) liquid culture / cucumber / preventative (anthracnose); assay type: cell-based; conditions: Colletotrichum orbiculare; 20 ppm in the applied formulation; liquid culture (PDB), growth inhibition measured photometrically after 3 to 4 days; compared to untreated control; read-out: disease control
In short: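 Percent activity against the untreated check was derived from photometric growth measurements made 2 to 7 days after conidia in potato dextrose broth were combined with compound at 20 ppm. Cultures were kept dark at 24 °C and 96% humidity.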

Phakopsora Pachyrhizi = assay: Fungicidal activity against Phakopsora pachyrhizi / soybean / leaf disc preventative (Asian soybean rust); assay type: in vivo; conditions: foliar, 200 ppm in the applied formulation, soybean leaf disks, compared to untreated control leaf disks, read-out: disease control
In short: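 Scored 12 to 14 days post-application as percent control relative to untreated check discs, rust spores were sprayed under the disc one day after compound treatment. Incubation: 20°C, 75% rh, first 24–36 h in darkness, then 12 h daily light; discs kept on water agar.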

[2] = system: Puccinia recondita f. Sp. Tritici; assay: Fungicidal activity against Puccinia recondita f. sp. tritici / wheat / leaf disc preventative (brown rust); assay type: in vivo; conditions: foliar, 200 ppm in the applied formulation, wheat leaf segments, preventative, compared to untreated control leaf disks, read-out: disease control
In short: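 Percent disease control relative to untreated check segments is scored once disease develops, 7 to 9 days after application. Wheat cv. Kanzler segments receive compound spray (200 ppm in formulation) one day before spore inoculation, then sit at 19° C. and 75% rh under 12 h light/12 h dark.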

[3] = system: Puccinia recondita f. Sp. Tritici; assay: Fungicidal activity against Puccinia recondita f. sp. tritici / wheat / leaf disc curative (brown rust); assay type: in vivo; conditions: foliar, 24 h, 200 ppm in the applied formulation, wheat leaf segments, curative (applied 1 day after inoculation), compared to untreated control leaf disks, read-out: disease control
In short: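 Curative leaf-segment test: compound diluted in water applied 1 day after spore inoculation of cv. Kanzler wheat segments on agar. Conditions 19° C, 75% RH, 12 h/12 h light cycle. Read-out: % disease control relative to untreated check, 6 to 8 days after application.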

CC1(C(=O)N(Cc2ccc(-c3noc(C(F)(F)F)n3)cc2)C2CC2)CC1 [Compound 1.118, N-cyclopropyl-1-methyl-N-[[4-[5-(trifluoromethyl)-1,2,4-oxadiazol-3-yl]phenyl]methyl]-cyclopropane-carboxamide]
≥ 80%: inhibition of growth at 20 ppm [1] | pest or weed control at 200 ppm (Phakopsora Pachyrhizi) | pest or weed control at 200 ppm [2] | pest or weed control at 200 ppm [3]

CCC(=O)N(Cc1ccc(-c2noc(C(F)(F)F)n2)cc1)C1CC1 [Compound 1.119, N-cyclopropyl-N-[[4-[5-(trifluoromethyl)-1,2,4-oxadiazol-3-yl]phenyl]methyl]-propanamide]
≥ 80%: inhibition of growth at 20 ppm [1] | pest or weed control at 200 ppm (Phakopsora Pachyrhizi) | pest or weed control at 200 ppm [2] | pest or weed control at 200 ppm [3]

O=C(Cc1ccccc1)N(Cc1ccc(-c2noc(C(F)(F)F)n2)cc1)C1CC1 [Compound 1.121, N-cyclopropyl-2-phenyl-N-[[4-[5-(trifluoromethyl)-1,2,4-oxadiazol-3-yl]phenyl]methyl]-acetamide]
≥ 80%: inhibition of growth at 20 ppm [1] | pest or weed control at 200 ppm (Phakopsora Pachyrhizi) | pest or weed control at 200 ppm [2] | pest or weed control at 200 ppm [3]

C=C(C)C(=O)N(Cc1ccc(-c2noc(C(F)(F)F)n2)cc1)C1CC1 [Compound 1.122, N-cyclopropyl-2-methyl-N-[[4-[5-(trifluoromethyl)-1,2,4-oxadiazol-3-yl]phenyl]methyl]prop-2-enamide]
≥ 80%: inhibition of growth at 20 ppm [1] | pest or weed control at 200 ppm (Phakopsora Pachyrhizi) | pest or weed control at 200 ppm [2] | pest or weed control at 200 ppm [3]

O=C(C1CCSCC1)N(Cc1ccc(-c2noc(C(F)(F)F)n2)cc1)C1CC1 [Compound 1.123, N-cyclopropyl-N-[[4-[5-(trifluoromethyl)-1,2,4-oxadiazol-3-yl]phenyl]methyl]-tetrahydrothiopyran-4-carboxamide]
≥ 80%: inhibition of growth at 20 ppm [1] | pest or weed control at 200 ppm (Phakopsora Pachyrhizi) | pest or weed control at 200 ppm [2] | pest or weed control at 200 ppm [3]

CC1(C)CC1C(=O)N(Cc1ccc(-c2noc(C(F)(F)F)n2)cc1)C1CC1 (stereo not shown) [Compound 1.124, N-cyclopropyl-2,2-dimethyl-N-[[4-[5-(trifluoromethyl)-1,2,4-oxadiazol-3-yl]phenyl]methyl]-cyclopropane-carboxamide]
≥ 80%: inhibition of growth at 20 ppm [1] | pest or weed control at 200 ppm (Phakopsora Pachyrhizi) | pest or weed control at 200 ppm [2] | pest or weed control at 200 ppm [3]

O=C(C1CC1(Cl)Cl)N(Cc1ccc(-c2noc(C(F)(F)F)n2)cc1)C1CC1 (stereo not shown) [Compound 1.125, 2,2-dichloro-N-cyclopropyl-N-[[4-[5-(trifluoromethyl)-1,2,4-oxadiazol-3-yl]phenyl]methyl]-cyclopropane-carboxamide]
≥ 80%: inhibition of growth at 20 ppm [1] | pest or weed control at 200 ppm (Phakopsora Pachyrhizi) | pest or weed control at 200 ppm [2] | pest or weed control at 200 ppm [3]

CCC(C)C(=O)N(Cc1ccc(-c2noc(C(F)(F)F)n2)cc1)C1CC1 (stereo not shown) [Compound 1.126, N-cyclopropyl-2-methyl-N-[[4-[5-(trifluoromethyl)-1,2,4-oxadiazol-3-yl]phenyl]methyl]-butanamide]
≥ 80%: inhibition of growth at 20 ppm [1] | pest or weed control at 200 ppm (Phakopsora Pachyrhizi) | pest or weed control at 200 ppm [2] | pest or weed control at 200 ppm [3]

CC1(C(=O)N(Cc2ccc(-c3noc(C(F)(F)F)n3)cc2)C2CC2)COC1 [Compound 1.128, N-cyclopropyl-3-methyl-N-[[4-[5-(trifluoromethyl)-1,2,4-oxadiazol-3-yl]phenyl]methyl]-oxetane-3-carboxamide]
≥ 80%: inhibition of growth at 20 ppm [1] | pest or weed control at 200 ppm (Phakopsora Pachyrhizi) | pest or weed control at 200 ppm [2] | pest or weed control at 200 ppm [3]

N#Cc1ccc(CC(=O)N(Cc2ccc(-c3noc(C(F)(F)F)n3)cc2)C2CC2)cc1 [Compound 1.130, 2-(4-cyanophenyl)-N-cyclopropyl-N-[[4-[5-(trifluoromethyl)-1,2,4-oxadiazol-3-yl]phenyl]methyl]-acetamide]
≥ 80%: inhibition of growth at 20 ppm [1] | pest or weed control at 200 ppm (Phakopsora Pachyrhizi) | pest or weed control at 200 ppm [2] | pest or weed control at 200 ppm [3]

CC(C)C(NC(=O)C1CC1)C(=O)N(Cc1ccc(-c2noc(C(F)(F)F)n2)cc1)C1CC1 (stereo not shown) [Compound 1.132, N-[1-[cyclopropyl-[[4-[5-(trifluoromethyl)-1,2,4-oxadiazol-3-yl]phenyl]methyl]-carbamoyl]-2-methyl-propyl]-cyclopropane-carboxamide]
≥ 80%: inhibition of growth at 20 ppm [1] | pest or weed control at 200 ppm (Phakopsora Pachyrhizi) | pest or weed control at 200 ppm [2] | pest or weed control at 200 ppm [3]

CCC(COC)C(=O)N(Cc1ccc(-c2noc(C(F)(F)F)n2)cc1)C1CC1 (stereo not shown) [Compound 1.134, N-cyclopropyl-2-(methoxymethyl)-N-[[4-[5-(trifluoromethyl)-1,2,4-oxadiazol-3-yl]phenyl]methyl]-butanamide]
≥ 80%: inhibition of growth at 20 ppm [1] | pest or weed control at 200 ppm (Phakopsora Pachyrhizi) | pest or weed control at 200 ppm [2] | pest or weed control at 200 ppm [3]

COCCCC(=O)N(Cc1ccc(-c2noc(C(F)(F)F)n2)cc1)C1CC1 [Compound 1.136, N-cyclopropyl-4-methoxy-N-[[4-[5-(trifluoromethyl)-1,2,4-oxadiazol-3-yl]phenyl]methyl]-butanamide]
≥ 80%: inhibition of growth at 20 ppm [1] | pest or weed control at 200 ppm (Phakopsora Pachyrhizi) | pest or weed control at 200 ppm [2] | pest or weed control at 200 ppm [3]

O=C(CC1CC1(F)F)N(Cc1ccc(-c2noc(C(F)(F)F)n2)cc1)C1CC1 (stereo not shown) [Compound 1.138, N-cyclopropyl-2-(2,2-difluorocyclopropyl)-N-[[4-[5-(trifluoromethyl)-1,2,4-oxadiazol-3-yl]phenyl]methyl]-acetamide]
≥ 80%: inhibition of growth at 20 ppm [1] | pest or weed control at 200 ppm (Phakopsora Pachyrhizi) | pest or weed control at 200 ppm [2] | pest or weed control at 200 ppm [3]

O=C(C1CCCO1)N(Cc1ccc(-c2noc(C(F)(F)F)n2)cc1)C1CC1 (stereo not shown) [Compound 1.145, N-cyclopropyl-N-[[4-[5-(trifluoromethyl)-1,2,4-oxadiazol-3-yl]phenyl]methyl]-tetrahydrofuran-2-carboxamide]
≥ 80%: inhibition of growth at 20 ppm [1] | pest or weed control at 200 ppm (Phakopsora Pachyrhizi) | pest or weed control at 200 ppm [2] | pest or weed control at 200 ppm [3]

N#CCC(=O)N(Cc1ccc(-c2noc(C(F)(F)F)n2)cc1)C1CC1 [Compound 1.146, 2-cyano-N-cyclopropyl-N-[[4-[5-(trifluoromethyl)-1,2,4-oxadiazol-3-yl]phenyl]methyl]-acetamide]
≥ 80%: inhibition of growth at 20 ppm [1] | pest or weed control at 200 ppm (Phakopsora Pachyrhizi) | pest or weed control at 200 ppm [2] | pest or weed control at 200 ppm [3]

COC(C)C(=O)N(Cc1ccc(-c2noc(C(F)(F)F)n2)cc1)C1CC1 (stereo not shown) [Compound 1.147, N-cyclopropyl-2-methoxy-N-[[4-[5-(trifluoromethyl)-1,2,4-oxadiazol-3-yl]phenyl]methyl]-propanamide]
≥ 80%: inhibition of growth at 20 ppm [1] | pest or weed control at 200 ppm (Phakopsora Pachyrhizi) | pest or weed control at 200 ppm [2] | pest or weed control at 200 ppm [3]

O=C(C1CC1)N(Cc1ccc(-c2noc(C(F)(F)F)n2)cc1)C1CC1 [Compound 1.149, N-cyclopropyl-N-[[4-[5-(trifluoromethyl)-1,2,4-oxadiazol-3-yl]phenyl]methyl]-cyclopropane-carboxamide]
≥ 80%: inhibition of growth at 20 ppm [1] | pest or weed control at 200 ppm (Phakopsora Pachyrhizi) | pest or weed control at 200 ppm [2] | pest or weed control at 200 ppm [3]

O=C(c1ccccc1)N(Cc1ccc(-c2noc(C(F)(F)F)n2)cc1)C1CC1 [Compound 1.150, N-cyclopropyl-N-[[4-[5-(trifluoromethyl)-1,2,4-oxadiazol-3-yl]phenyl]methyl]-benzamide]
≥ 80%: inhibition of growth at 20 ppm [1] | pest or weed control at 200 ppm (Phakopsora Pachyrhizi) | pest or weed control at 200 ppm [2] | pest or weed control at 200 ppm [3]

C#CCN(Cc1ccc(-c2noc(C(F)(F)F)n2)cc1)C(=O)C1(C(F)(F)F)CC1 [Compound 1.151, N-prop-2-ynyl-1-(trifluoromethyl)-N-[[4-[5-(trifIuoromethyl)-1,2,4-oxadiazol-3-yl]phenyl]methyl]-cyclopropane-carboxamide]
≥ 80%: inhibition of growth at 20 ppm [1] | pest or weed control at 200 ppm (Phakopsora Pachyrhizi) | pest or weed control at 200 ppm [2] | pest or weed control at 200 ppm [3]

C#CCCC(=O)N(CC#C)Cc1ccc(-c2noc(C(F)(F)F)n2)cc1 [Compound 1.154, N-prop-2-ynyl-N-[[4-[5-(trifluoromethyl)-1,2.4-oxadiazol-3-yl]phenyl]methyl]-pent-4-ynamide]
≥ 80%: inhibition of growth at 20 ppm [1] | pest or weed control at 200 ppm (Phakopsora Pachyrhizi) | pest or weed control at 200 ppm [2] | pest or weed control at 200 ppm [3]

C#CCN(Cc1ccc(-c2noc(C(F)(F)F)n2)cc1)C(=O)C(C)C [Compound 1.155, 2-methyl-N-prop-2-ynyl-N-[[4-[5-(trifluoromethyl)-1,2,4-oxadiazol-3-yl]phenyl]methyl]-propanamide]
≥ 80%: inhibition of growth at 20 ppm [1] | pest or weed control at 200 ppm (Phakopsora Pachyrhizi) | pest or weed control at 200 ppm [2] | pest or weed control at 200 ppm [3]
